Measured values published in article PMC4119572 (Clinical cancer research : an official journal of the …, 2014).

Key:
Type in all cases: cell-based
OCT2 [1] = target: T1, OCT2 (Homo sapiens, UniProt O15244); assay: […]TEA uptake inhibition in OCT2-transfected HEK293 cells, Dixon plot
T1 sequence (O15244 1-555): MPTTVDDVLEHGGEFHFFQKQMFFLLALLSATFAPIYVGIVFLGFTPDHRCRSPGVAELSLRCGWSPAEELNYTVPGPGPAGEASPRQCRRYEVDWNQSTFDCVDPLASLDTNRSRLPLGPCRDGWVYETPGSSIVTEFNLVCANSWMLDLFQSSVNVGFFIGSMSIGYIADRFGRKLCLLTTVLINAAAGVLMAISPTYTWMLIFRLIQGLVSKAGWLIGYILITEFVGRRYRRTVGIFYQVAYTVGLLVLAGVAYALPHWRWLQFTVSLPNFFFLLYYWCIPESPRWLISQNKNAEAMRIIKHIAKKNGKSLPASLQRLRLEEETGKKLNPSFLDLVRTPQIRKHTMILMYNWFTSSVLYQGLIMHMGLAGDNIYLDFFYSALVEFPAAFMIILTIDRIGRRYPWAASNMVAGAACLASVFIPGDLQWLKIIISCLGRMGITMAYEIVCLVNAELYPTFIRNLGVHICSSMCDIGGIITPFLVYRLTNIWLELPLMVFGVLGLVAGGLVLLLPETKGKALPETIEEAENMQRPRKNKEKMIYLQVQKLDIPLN

mouse Oct1 = target: T2, mouse Oct1 (Mus musculus, UniProt O08966); assay: TEA and ASP+ uptake inhibition in mOct1-transfected HEK293 cells
T2 sequence (O08966 1-556): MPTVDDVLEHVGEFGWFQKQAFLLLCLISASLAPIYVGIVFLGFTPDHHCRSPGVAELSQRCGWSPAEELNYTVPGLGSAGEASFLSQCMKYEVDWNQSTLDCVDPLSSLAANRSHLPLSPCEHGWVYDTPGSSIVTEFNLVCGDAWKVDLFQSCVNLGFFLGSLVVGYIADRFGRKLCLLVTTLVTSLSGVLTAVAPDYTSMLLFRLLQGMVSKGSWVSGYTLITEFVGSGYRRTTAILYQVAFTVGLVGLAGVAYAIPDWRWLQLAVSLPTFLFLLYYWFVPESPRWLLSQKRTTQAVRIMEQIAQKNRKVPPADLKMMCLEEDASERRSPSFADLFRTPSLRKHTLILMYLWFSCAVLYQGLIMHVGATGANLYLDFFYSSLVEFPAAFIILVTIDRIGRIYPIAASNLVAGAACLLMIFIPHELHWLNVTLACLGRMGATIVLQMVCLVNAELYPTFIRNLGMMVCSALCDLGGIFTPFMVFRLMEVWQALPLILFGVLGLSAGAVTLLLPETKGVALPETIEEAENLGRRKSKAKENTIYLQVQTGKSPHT

mouse Oct2 = target: T3, mouse Oct2 (Mus musculus, UniProt O70577); assay: TEA and ASP+ uptake inhibition in mOct2-transfected HEK293 cells
T3 sequence (O70577 1-553): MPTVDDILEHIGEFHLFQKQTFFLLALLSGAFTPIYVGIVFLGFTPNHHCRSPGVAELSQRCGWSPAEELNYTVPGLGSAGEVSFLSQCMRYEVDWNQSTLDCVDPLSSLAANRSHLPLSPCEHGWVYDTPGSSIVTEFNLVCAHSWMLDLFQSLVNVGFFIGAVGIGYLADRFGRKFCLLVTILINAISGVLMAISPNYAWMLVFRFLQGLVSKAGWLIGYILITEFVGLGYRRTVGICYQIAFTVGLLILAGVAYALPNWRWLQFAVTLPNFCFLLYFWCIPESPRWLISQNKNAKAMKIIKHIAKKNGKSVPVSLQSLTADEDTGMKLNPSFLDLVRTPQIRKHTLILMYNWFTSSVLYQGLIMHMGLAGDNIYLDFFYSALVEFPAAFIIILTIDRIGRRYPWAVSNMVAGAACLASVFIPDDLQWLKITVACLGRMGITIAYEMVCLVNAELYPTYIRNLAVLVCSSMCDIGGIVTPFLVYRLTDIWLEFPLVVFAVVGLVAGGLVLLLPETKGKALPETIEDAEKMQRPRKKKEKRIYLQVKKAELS

OCT2 [2] = target: T1, OCT2; assay: […]TEA uptake in OCT2-transfected HEK293 cells

Row | SMILES | Ki (OCT2 [1]) [µM] | TEA and ASP+ uptake inhibition in mOct1-transfected HEK293 cells (mouse Oct1) | TEA and ASP+ uptake inhibition in mOct2-transfected HEK293 cells (mouse Oct2) | [14C]TEA uptake in OCT2-transfected HEK293 cells (OCT2 [2])
1 | Cc1ccc(C(=O)Cn2c3c(sc2=N)CCCC3)cc1 [pifithrin-α] | 3.04 | pifithrin-α reduced uptake of TEA in Oct1 and Oct2 overexpressing HEK293 cells (Fig. 5A) | pifithrin-α reduced uptake of TEA in Oct1 and Oct2 overexpressing HEK293 cells (Fig. 5A) | 
2 | CC[N+](CC)(CC)CC [tetraethylammonium] |  |  |  | kinetic analyses were performed with and without pifithrin-α using varying concentrations of TEA as the OCT2 substrate
